Experimental data: US8247556B2, “Method for preparing 6-substituted-7-aza-indoles” (Amgen Inc., priority 2005, dated 2012)

Assays:
[1] = system: VEGF-stimulated HUVEC proliferation (Human Umbilical Vein Endothelial cells); test: HUVEC Proliferation Assay; type: cell-based; details: VEGF 50 ng/mL, 72 h, CyQuant fluorescent dye, read-out: inhibited VEGF-stimulated HUVEC proliferation at a level
Description: Human Umbilical Vein Endothelial cells are purchased from Clonetics, Inc., as cryopreserved cells harvested from a pool of donors. These cells, at passage 1, are thawed and expanded in EBM-2 complete medium, until passage 2 or 3. The cells are trypsinized, washed in DMEM+10% FBS+antibiotics, and spun at 1000 rpm for 10 min. Prior to centrifugation of the cells, a small amount is collected for a cell count. After centrifugation, the medium is discarded, and the cells are resuspended in the appropriate volume of DMEM+10% FBS+antibiotics to achieve a concentration of 3×10^5 cells/mL. Another cell count is performed to confirm the cell concentration. The cells are diluted to 3×10^4 cells/mL in DMEM+10% FBS+antibiotics, and 100 μL of cells are added to a 96-well plate. The cells are incubated at 37° C. for 22 h.
Prior to the completion of the incubation period, compound dilutions are prepared. Five-point, five-fold serial dilutions are prepared in DMSO, at concentrations 400-fold greater than the final concentrations desired. 2.5 μL of each compound dilution are diluted further in a total of 1 mL DMEM+10% FBS+antibiotics (400× dilution). Medium containing 0.25% DMSO is also prepared for the 0 μM compound sample. At the 22 h time point, the medium is removed from the cells, and 100 μL of each compound dilution is added. The cells are incubated at 37° C. for 2-3 h.
During the compound pre-incubation period, the growth factors are diluted to the appropriate concentrations. Solutions of DMEM+10% FBS+antibiotics, containing either VEGF or bFGF at the following concentrations: 50, 10, 2, 0.4, 0.08, and 0 ng/mL are prepared. For the compound-treated cells, solutions of VEGF at 550 ng/mL or bFGF at 220 ng/mL for 50 ng/mL or 20 ng/mL final concentrations, respectively, are prepared since 10 μL of each will be added to the cells (110 μL final volume). At the appropriate time after adding the compounds, the growth factors are added. VEGF is added to one set of plates, while bFGF is added to another set of plates. For the growth factor control curves, the media on wells B4-G6 of plates 1 and 2 are replaced with media containing VEGF or bFGF at the varying concentrations (50-0 ng/mL). The cells are incubated at 37° C. for an additional 72 h.
At the completion of the 72 h incubation period, the medium is removed, and the cells are washed twice with PBS. After the second wash with PBS, the plates are tapped gently to remove excess PBS, and the cells are placed at −70° C. for at least 30 min. The cells are thawed and analyzed using the CyQuant fluorescent dye (Molecular Probes C-7026), following the manufacturer's recommendations. The plates are read on a Victor/Wallac 1420 workstation at 485 nm/530 nm (excitation/emission). Raw data are collected and analyzed using a 4-parameter fit equation in XLFit. IC50 values are then determined.

CYP 2D6 = target: T1, CYP 2D6 (Homo sapiens, UniProt P10635); test: Human Liver Microsome CYP 2D6 Inhibition; type: in vitro ADME; details: human liver microsomes, bufuralol substrate; read-out: inhibited CYP2D6 microsomes, IC50
T1 construct: followed by 555.6 ml of 20 mg/mL HLM (BD Gentest); tissue BD Gentest; host or cells: human liver microsomes
Description: Determining the IC-50 for Human Liver Microsome CYP 2D6 Inhibition
Postassium Phosphate Buffer pH 7.4 (39.333 mL) is chilled in an ice bath and added to a 50 ml plastic tube. A 3.2 mM bufuralol solution is prepared. 111.1 ul of 3.2 mM bufuralol is added to the buffer followed by 555.6 ml of 20 mg/mL HLM (BD Gentest). The incubation mixture was gently inverted and equilibrated at 37° C. for 5 min. A stock inhibitor solution is prepared, such as in DMSO. Incubation mixture (801 ul) is added into 96-well, 1.2 mL plastic tubes. Inhibitor is added at various concentrations (e.g. 30 μM to […]). The tubes are sealed and mix by inverting 5 times gently. The incubation mixture containing inhibitor (270 μL) is added by aliquot into wells of a 1 mL, 96-well block (duplicate). The block is placed into a 37° C. water bath and equilibrated for 3 minutes. 10 mM NADPH (30 ml) is added to all samples. After 5 min, the reactions are stopped by adding 300 ml of Quench Solution [0.1% TFA in CH3CN]. 1′-OH-bufuralol-d9 (750 ng/mL 30 μL) is added, the block is gently vortexed then centrifuged at 3000 rpm for 10 min at 4° C. 50 μL of supernatant from all samples is added by aliquot into a shorter, 96-well block. The aliquoted supernatants are pooled with other assay(s) and HPLC Grade Water (50 μL) is added to all samples. After covering and shaking by vortex gently for 2 minutes, the solutions were analyzed by LC-MS (API 3000, 5% MeOH w/0.1% AcOH to 95% MeOH w/0.1% AcOH). 500 nM quinidine is used as a control.

T1 sequence (P10635 whole entry): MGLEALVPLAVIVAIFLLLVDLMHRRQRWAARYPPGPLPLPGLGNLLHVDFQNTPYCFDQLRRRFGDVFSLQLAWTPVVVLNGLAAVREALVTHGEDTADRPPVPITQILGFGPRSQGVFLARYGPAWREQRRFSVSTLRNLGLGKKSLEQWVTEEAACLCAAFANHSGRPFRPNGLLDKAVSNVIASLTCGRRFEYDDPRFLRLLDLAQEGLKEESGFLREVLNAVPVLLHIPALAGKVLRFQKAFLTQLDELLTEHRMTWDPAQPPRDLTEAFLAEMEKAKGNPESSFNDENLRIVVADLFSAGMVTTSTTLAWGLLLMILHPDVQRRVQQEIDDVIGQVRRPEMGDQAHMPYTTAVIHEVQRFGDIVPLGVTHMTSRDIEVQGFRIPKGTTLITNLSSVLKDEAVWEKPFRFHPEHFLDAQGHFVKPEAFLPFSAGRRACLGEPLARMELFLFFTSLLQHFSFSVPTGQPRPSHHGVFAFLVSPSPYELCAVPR

Row | Structure (SMILES) | IC50 [1] [µM] | IC50 (CYP 2D6) [µM]
1 | CC1(C)CN(C(=O)CN)c2cc(NC(=O)c3cccnc3NCc3ccnc4[nH]ccc34)ccc21 [Example 21, N-(1-Glycyl-3,3-dimethyl-2,3-dihydro-1H-indol-6-yl)-2-[(1H-pyrrolo[2,3-b]pyridin-4-ylmethyl)amino]nicotinamide] | < 0.5 | > 20
2 | CC(=O)N1CC(C)(C)c2ccc(NC(=O)c3cccnc3NCc3ccnc4c3CCN4)cc21 [Example 29, N-(1-Acetyl-3,3-dimethyl-2,3-dihydro-1H-indol-6-yl)-2-[(2,3-dihydro-1H-pyrrolo[2,3-b]pyridin-4-ylmethyl)amino]nicotinamide] | < 0.5 | > 20
3 | CC1(C)CCNc2cc(NC(=O)c3cccnc3NCc3ccnc4c3CCN4)ccc21 [Example 31, 2-[(2,3-Dihydro-1H-pyrrolo[2,3-b]pyridin-4-ylmethyl)amino]-N-(4,4-dimethyl-1,2,3,4-tetrahydroquinolin-7-yl)nicotinamide] | < 0.5 | > 20
4 | CC1(C)CNCc2cc(NC(=O)c3cccnc3NCc3c[nH]c4ncccc34)ccc21 [Example 38, N-(4,4-Dimethyl-1,2,3,4-tetrahydroisoquinolin-7-yl)-2-[(1H-pyrrolo[2,3-b]pyridin-3-ylmethyl)amino]nicotinamide] | < 0.5 | > 20
5 | CC1(C)CCNc2cc(NC(=O)c3cccnc3NCc3c[nH]c4ncccc34)ccc21 [Example 40, N-(4,4-Dimethyl-1,2,3,4-tetrahydro-quinolin-7-yl)-2-[(1H-pyrrolo[2,3-b]pyridin-3-ylmethyl)-amino]-nicotinamide] | < 0.5 | > 20
6 | CC(=O)N1CCC(C)(C)c2ccc(NC(=O)c3cccnc3NCc3ccnc4[nH]ccc34)cc21 [Example 52, N-(1-Acetyl-4,4-dimethyl-1,2,3,4-tetrahydro-quinolin-7-yl)-2-[(1H-pyrrolo[2,3-b]pyridin-4-ylmethyl)-amino]-nicotinamide] | < 0.5 | > 20
7 | CC1(C)CN(S(C)(=O)=O)c2cc(NC(=O)c3cccnc3NCc3ccnc4[nH]ccc34)ccc21 [Example 61, N-(1-Methanesulfonyl-3,3-dimethyl-2,3-dihydro-1H-indol-6-yl)-2-[(1H-pyrrolo[2,3-b]pyridin-4-ylmethyl)-amino]-nicotinamide] | < 0.5 | > 20
8 | [2H]C1([2H])CC(C)(C)c2ccc(NC(=O)c3cccnc3NCc3ccnc4[nH]ccc34)cc2N1 [Example 69, N-(2,2-Dideutero-4,4-dimethyl-1,2,3,4-tetrahydro-quinolin-7-yl)-2-[(1H-pyrrolo[2,3-b]pyridin-4-ylmethyl)-amino]-nicotinamide] | < 0.5 | > 20
9 | Cc1nc2cc(NC(=O)c3cccnc3NCc3ccnc4[nH]ncc34)ccc2s1 [Example 70, N-(2-Methyl-1,3-benzothiazol-5-yl)-2-((1H-pyrazolo[3,4-b]pyridin-4-ylmethyl)amino)-3-pyridinecarboxamide] | < 0.5 | > 20
10 | CC(=O)N1CC(C)(C)c2ccc(NC(=O)c3cc(F)cnc3NCc3ccnc4[nH]ccc34)cc21 [Example 80, N-(1-acetyl-3,3-dimethyl-2,3-dihydro-1H-indol-6-yl)-5-fluoro-2-((1H-pyrrolo[2,3-b]pyridin-4-ylmethyl)amino)-3-pyridinecarboxamide] | < 0.5 | > 20
11 | CC1(C)CC(=O)Nc2cc(NC(=O)c3cc(F)cnc3NCc3ccnc4[nH]ccc34)ccc21 [Example 81, N-(4,4-dimethyl-2-oxo-1,2,3,4-tetrahydro-7-quinolinyl)-5-fluoro-2-((1H-pyrrolo[2,3-b]pyridin-4-ylmethyl)amino)-3-pyridinecarboxamide] | < 0.5 | > 20
12 | CC1(C)CCNc2cc(NC(=O)c3cc(F)cnc3NCc3ccnc4[nH]ccc34)ccc21 [Example 82, N-(4,4-dimethyl-1,2,3,4-tetrahydro-7-quinolinyl)-5-fluoro-2-((1H-pyrrolo[2,3-b]pyridin-4-ylmethyl)amino)-3-pyridinecarboxamide] | < 0.5 | > 20
